Measurements published in PubChem BioAssay (NCI).
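Dose response: 5 concentrations. Exposure: 48 h. Format: 96-well plates. Endpoint: linear interpolation; highest concentration if not reached. TGI: total growth inhibition.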

How the values were obtained:
Test in all cases: DTP human tumour cell line panel, 48 h
[1] = tested on: CCRF-CEM leukemia
[2] = tested on: OVCAR-4 ovarian
[3] = tested on: SF-539 CNS
[4] = tested on: SK-MEL-2 melanoma
[5] = tested on: K-562 leukemia
[6] = tested on: IGROV1 ovarian
[7] = tested on: HCT-15 colon
[8] = tested on: UACC-62 melanoma
[9] = tested on: SK-MEL-5 melanoma
[10] = tested on: HT29 colon
[11] = tested on: MALME-3M melanoma
[12] = tested on: SF-268 CNS
[13] = tested on: SNB-78 CNS
[14] = tested on: HCC-2998 colon
[15] = tested on: A549 NSCLC
[16] = tested on: SNB-75 CNS
[17] = tested on: NCI-H460 lung
[18] = tested on: M14 melanoma
[19] = tested on: MOLT-4 leukemia
[20] = tested on: UO-31 renal
[21] = tested on: SN12C renal
[22] = tested on: DMS 114 small cell lung
[23] = tested on: RXF 393 renal
[24] = tested on: U251 CNS
[25] = tested on: COLO 205 colon
[26] = tested on: NCI-H522 lung
[27] = tested on: OVCAR-8 ovarian
[28] = tested on: KM12 colon
[29] = tested on: EKVX NSCLC
[30] = tested on: A498 renal
[31] = tested on: SNB-19 CNS
[32] = tested on: DLD-1 colon
[33] = tested on: SK-OV-3 ovarian
[34] = tested on: LXFL 529 NSCLC
[35] = tested on: NCI-H23 lung
[36] = tested on: CAKI-1 renal
[37] = tested on: DMS 273 small cell lung
[38] = tested on: HL-60(TB) leukemia
[39] = tested on: TK-10 renal
[40] = tested on: RPMI-8226 leukemia
[41] = tested on: ACHN renal
[42] = tested on: LOX IMVI melanoma
[43] = tested on: SF-295 CNS
[44] = tested on: SK-MEL-28 melanoma
[45] = tested on: SW-620 colon
[46] = tested on: OVCAR-5 ovarian
[47] = tested on: UACC-257 melanoma
[48] = tested on: 786-0 renal
[49] = tested on: XF 498 CNS
[50] = tested on: HOP-18 NSCLC
[51] = tested on: KM20L2 colon
[52] = tested on: HCT-116 colon
[53] = tested on: HOP-92 NSCLC
[54] = tested on: M19-MEL melanoma
[55] = tested on: HOP-62 NSCLC
[56] = tested on: OVCAR-3 ovarian
[57] = tested on: NCI-H226 lung
[58] = tested on: SR leukemia

SMILES: S=c1o[nH]c(-c2ccccc2)c1C=Nc1ccccc1
- TGI [1]: > 100 µM
- TGI [2]: > 100 µM
- TGI [3]: > 100 µM
- TGI [4]: > 100 µM
- TGI [5]: > 100 µM
- TGI [6]: > 100 µM
- TGI [7]: > 100 µM
- TGI [8]: > 100 µM
- TGI [9]: > 100 µM
- TGI [10]: > 100 µM
- TGI [11]: > 100 µM
- TGI [12]: > 100 µM
- TGI [13]: > 100 µM
- TGI [14]: > 100 µM
- TGI [15]: > 100 µM
- TGI [16]: > 100 µM
- TGI [17]: > 100 µM
- TGI [18]: > 100 µM
- TGI [19]: > 100 µM
- TGI [20]: > 100 µM
- TGI [21]: > 100 µM
- TGI [22]: > 100 µM
- TGI [23]: > 100 µM
- TGI [24]: > 100 µM
- TGI [25]: > 100 µM
- TGI [26]: > 100 µM
- TGI [27]: > 100 µM
- TGI [28]: > 100 µM
- TGI [29]: > 100 µM
- TGI [30]: > 100 µM
- TGI [31]: > 100 µM
- TGI [32]: > 100 µM
- TGI [33]: > 100 µM
- TGI [34]: > 100 µM
- TGI [35]: > 100 µM
- TGI [36]: > 100 µM
- TGI [37]: > 100 µM
- TGI [38]: > 100 µM
- TGI [39]: > 100 µM
- TGI [40]: > 100 µM
- TGI [41]: > 100 µM
- TGI [42]: > 100 µM
- TGI [43]: > 100 µM
- TGI [44]: > 100 µM
- TGI [45]: > 100 µM
- TGI [46]: > 100 µM
- TGI [47]: > 100 µM
- TGI [48]: > 100 µM
- TGI [49]: > 100 µM

SMILES: Cc1ccc(S(=O)(=O)NC(=O)NCCc2ccccc2)cc1
- TGI [50]: > 100 µM
- TGI [1]: > 100 µM
- TGI [2]: > 100 µM
- TGI [3]: > 100 µM
- TGI [4]: > 100 µM
- TGI [5]: > 100 µM
- TGI [6]: > 100 µM
- TGI [8]: > 100 µM
- TGI [9]: > 100 µM
- TGI [11]: > 100 µM
- TGI [12]: > 100 µM
- TGI [13]: > 100 µM
- TGI [51]: > 100 µM
- TGI [14]: > 100 µM
- TGI [15]: > 100 µM
- TGI [16]: > 100 µM
- TGI [17]: > 100 µM
- TGI [18]: > 100 µM
- TGI [19]: > 100 µM
- TGI [20]: > 100 µM
- TGI [21]: > 100 µM
- TGI [22]: > 100 µM
- TGI [23]: > 100 µM
- TGI [24]: > 100 µM
- TGI [25]: > 100 µM
- TGI [26]: > 100 µM
- TGI [27]: > 100 µM
- TGI [28]: > 100 µM
- TGI [29]: > 100 µM
- TGI [30]: > 100 µM
- TGI [31]: > 100 µM
- TGI [32]: > 100 µM
- TGI [52]: > 100 µM
- TGI [33]: > 100 µM
- TGI [53]: > 100 µM
- TGI [34]: > 100 µM
- TGI [35]: > 100 µM
- TGI [54]: > 100 µM
- TGI [36]: > 100 µM
- TGI [38]: > 100 µM
- TGI [39]: > 100 µM
- TGI [40]: > 100 µM
- TGI [41]: > 100 µM
- TGI [42]: > 100 µM
- TGI [43]: > 100 µM
- TGI [55]: > 100 µM
- TGI [56]: > 100 µM
- TGI [44]: > 100 µM
- TGI [57]: > 100 µM
- TGI [45]: > 100 µM
- TGI [46]: > 100 µM
- TGI [47]: 88.2 µM
- TGI [48]: > 100 µM
- TGI [49]: > 100 µM

SMILES: Cc1coc2c1C(=O)C(=O)c1ccccc1-2
- TGI [1]: 5.49 µM
- TGI [2]: 3.22 µM
- TGI [3]: 2.88 µM
- TGI [4]: 3.78 µM
- TGI [5]: 1.44 µM
- TGI [6]: 3.44 µM
- TGI [7]: 3.42 µM
- TGI [8]: 3.25 µM
- TGI [9]: 1.92 µM
- TGI [10]: 3.53 µM
- TGI [11]: 2.96 µM
- TGI [13]: 3.13 µM
- TGI [51]: 11.2 µM
- TGI [14]: 3.35 µM
- TGI [15]: 4.07 µM
- TGI [16]: 3.15 µM
- TGI [17]: 3.18 µM
- TGI [18]: 2.63 µM
- TGI [19]: 6.03 µM
- TGI [20]: 10.4 µM
- TGI [21]: 2.12 µM
- TGI [22]: 0.326 µM
- TGI [23]: 3.12 µM
- TGI [24]: 2.97 µM
- TGI [27]: 1.25 µM
- TGI [28]: 3.49 µM
- TGI [30]: 3.25 µM
- TGI [32]: 4.26 µM
- TGI [52]: 0.879 µM
- TGI [33]: 3.25 µM
- TGI [53]: 1.28 µM
- TGI [34]: 1.41 µM
- TGI [35]: 4.09 µM
- TGI [36]: 3.63 µM
- TGI [37]: 3.33 µM
- TGI [39]: 3.3 µM
- TGI [42]: 1.05 µM
- TGI [43]: 3.03 µM
- TGI [55]: 3 µM
- TGI [56]: 3.29 µM
- TGI [44]: 3.09 µM
- TGI [57]: 2.55 µM
- TGI [58]: 4.78 µM
- TGI [45]: 2.92 µM
- TGI [46]: 3.55 µM
- TGI [47]: 0.542 µM
- TGI [48]: 3.24 µM

SMILES: N#COc1ccc(Oc2ccccc2)cc1
- TGI [50]: > 100 µM
- TGI [1]: 60 µM
- TGI [2]: > 100 µM
- TGI [3]: 92.4 µM
- TGI [4]: > 100 µM
- TGI [5]: > 100 µM
- TGI [6]: > 100 µM
- TGI [7]: > 100 µM
- TGI [8]: > 100 µM
- TGI [9]: > 100 µM
- TGI [10]: > 100 µM
- TGI [11]: > 100 µM
- TGI [12]: > 100 µM
- TGI [13]: > 100 µM
- TGI [51]: > 100 µM
- TGI [14]: > 100 µM
- TGI [15]: > 100 µM
- TGI [16]: > 100 µM
- TGI [17]: > 100 µM
- TGI [18]: > 100 µM
- TGI [19]: > 100 µM
- TGI [20]: > 100 µM
- TGI [21]: > 100 µM
- TGI [22]: 89.6 µM
- TGI [23]: > 100 µM
- TGI [24]: > 100 µM
- TGI [25]: > 100 µM
- TGI [26]: > 100 µM
- TGI [27]: > 100 µM
- TGI [28]: > 100 µM
- TGI [29]: > 100 µM
- TGI [30]: > 100 µM
- TGI [31]: > 100 µM
- TGI [32]: > 100 µM
- TGI [52]: > 100 µM
- TGI [33]: > 100 µM
- TGI [53]: > 100 µM
- TGI [34]: > 100 µM
- TGI [35]: > 100 µM
- TGI [54]: > 100 µM
- TGI [36]: > 100 µM
- TGI [37]: 50.4 µM
- TGI [38]: 75.8 µM
- TGI [39]: > 100 µM
- TGI [40]: 83.5 µM
- TGI [41]: > 100 µM
- TGI [42]: 40.9 µM
- TGI [43]: > 100 µM
- TGI [55]: > 100 µM
- TGI [56]: > 100 µM
- TGI [44]: > 100 µM
- TGI [57]: > 100 µM
- TGI [58]: 50 µM
- TGI [46]: > 100 µM
- TGI [47]: > 100 µM
- TGI [48]: > 100 µM
- TGI [49]: > 100 µM
